Assay results published in ChEMBL document CHEMBL3826919, “The discovery of novel and selective fatty acid binding protein 4 inhibitors by virtual screening and biological evaluation” (Bioorg Med Chem, 2016).

Assays:
[1] = molecular target: T1, Fatty acid-binding protein, liver (Homo sapiens) (UniProt P07148); assay: Displacement of 1,8-ANS from His6-tagged FABP1 (unknown origin) expressed in Escherichia coli BL21(DE3) cells at 25 uM by fluorescence assay relative to control
T1 sequence (whole entry): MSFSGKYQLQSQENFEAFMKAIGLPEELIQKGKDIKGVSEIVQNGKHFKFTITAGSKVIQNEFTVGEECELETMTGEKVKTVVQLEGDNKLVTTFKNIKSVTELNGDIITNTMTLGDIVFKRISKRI

[2] = molecular target: T2, Fatty acid-binding protein, adipocyte (Homo sapiens, UniProt P15090); assay: Direct binding to His6-tagged FABP4 (unknown origin) expressed in Escherichia coli BL21(DE3) cells by isothermal titration calorimetry
Target sequence in this assay (P15090 whole entry): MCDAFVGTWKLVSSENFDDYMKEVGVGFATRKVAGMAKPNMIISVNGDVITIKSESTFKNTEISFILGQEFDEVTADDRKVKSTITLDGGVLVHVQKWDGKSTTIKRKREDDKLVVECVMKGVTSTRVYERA

[3] = molecular target: T3, Fatty acid-binding protein 9 (Homo sapiens) (UniProt Q0Z7S8); assay: Displacement of 1,8-ANS from His6-tagged FABP9 (unknown origin) expressed in Escherichia coli BL21(DE3) cells at 25 uM by fluorescence assay relative to control
T3 sequence (whole entry): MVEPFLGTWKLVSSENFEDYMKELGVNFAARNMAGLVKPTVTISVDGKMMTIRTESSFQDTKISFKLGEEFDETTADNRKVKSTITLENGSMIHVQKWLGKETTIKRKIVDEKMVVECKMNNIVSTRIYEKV

[4] = molecular target: T4, Fatty acid-binding protein, adipocyte (Mus musculus) (UniProt P04117); assay: Inhibition of FABP4 in mouse RAW264.7 cells assessed as inhibition of LPS-induced IL-6 expression after 24 hrs by qPCR method; assay type: cell-based
T4 sequence (whole entry): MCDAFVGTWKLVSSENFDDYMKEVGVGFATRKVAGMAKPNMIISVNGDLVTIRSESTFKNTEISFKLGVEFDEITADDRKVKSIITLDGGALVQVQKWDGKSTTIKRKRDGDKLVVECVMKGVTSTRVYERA

[5] = molecular target: T5, Fatty acid-binding protein, heart (Homo sapiens, UniProt P05413); conditions: 50 uM
Target sequence in this assay (P05413 2-133 limits assumed): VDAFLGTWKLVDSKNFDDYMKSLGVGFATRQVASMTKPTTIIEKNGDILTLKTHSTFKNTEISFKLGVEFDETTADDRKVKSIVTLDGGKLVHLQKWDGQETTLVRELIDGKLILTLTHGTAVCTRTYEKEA
Description: Binding affinity to His6-tagged FABP3 (unknown origin) expressed in Escherichia coli BL21(DE3) cells assessed as change in melting temperature at 50 uM after 30 mins by SYPRO orange dye based thermal stability shift assay

[6] = molecular target: T6, Fatty acid-binding protein, intestinal (Homo sapiens) (UniProt P12104); assay: Displacement of 1,8-ANS from His6-tagged FABP2 (unknown origin) expressed in Escherichia coli BL21(DE3) cells at 25 uM by fluorescence assay relative to control
T6 sequence (whole entry): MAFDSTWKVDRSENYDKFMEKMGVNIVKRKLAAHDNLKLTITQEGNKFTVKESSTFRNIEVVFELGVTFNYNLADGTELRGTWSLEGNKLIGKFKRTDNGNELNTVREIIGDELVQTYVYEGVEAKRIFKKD

[7] = molecular target: Fatty acid-binding protein 5 (Homo sapiens) (UniProt Q01469); assay: Displacement of 1,8-ANS from His6-tagged FABP5 (unknown origin) expressed in Escherichia coli BL21(DE3) cells at 25 uM by fluorescence assay relative to control
Fatty acid-binding protein 5 (Homo sapiens), sequence (Q01469 whole entry): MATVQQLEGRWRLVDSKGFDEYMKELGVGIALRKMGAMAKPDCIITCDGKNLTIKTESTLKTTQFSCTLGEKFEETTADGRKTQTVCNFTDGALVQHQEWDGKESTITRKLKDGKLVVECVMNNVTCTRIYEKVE

[8] = molecular target: T4, Fatty acid-binding protein, adipocyte (Mus musculus); assay: Inhibition of FABP4 in mouse RAW264.7 cells assessed as inhibition of LPS-induced TNFalpha expression after 24 hrs by qPCR method; assay type: cell-based
[9] = molecular target: Fatty acid-binding protein, brain (Homo sapiens) (UniProt O15540); assay: Displacement of 1,8-ANS from His6-tagged FABP7 (unknown origin) expressed in Escherichia coli BL21(DE3) cells at 25 uM by fluorescence assay relative to control
Fatty acid-binding protein, brain (Homo sapiens), sequence (O15540 2-132 limits assumed): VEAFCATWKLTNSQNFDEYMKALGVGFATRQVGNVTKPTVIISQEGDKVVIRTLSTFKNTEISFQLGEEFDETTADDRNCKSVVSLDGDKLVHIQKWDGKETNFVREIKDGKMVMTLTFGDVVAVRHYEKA

[10] = molecular target: T5, Fatty acid-binding protein, heart; conditions: 25 uM
Target sequence in this assay (P05413 2-133 limits assumed): as the sequence (P05413 2-133 limits assumed) above
Description: Displacement of 1,8-ANS from His6-tagged FABP3 (unknown origin) expressed in Escherichia coli BL21(DE3) cells at 25 uM by fluorescence assay relative to control

[11] = molecular target: T2, Fatty acid-binding protein, adipocyte; assay: Binding affinity to His6-tagged FABP4 (unknown origin) expressed in Escherichia coli BL21(DE3) cells assessed as change in melting temperature at 50 uM after 30 mins by SYPRO orange dye based thermal stability shift assay
Target sequence in this assay (P15090 2-132 limits assumed): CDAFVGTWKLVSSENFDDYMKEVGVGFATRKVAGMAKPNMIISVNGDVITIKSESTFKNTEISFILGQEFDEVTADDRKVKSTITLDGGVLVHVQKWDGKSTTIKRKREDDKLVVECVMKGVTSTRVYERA

[12] = molecular target: T4, Fatty acid-binding protein, adipocyte (Mus musculus); assay: Inhibition of FABP4 in mouse RAW264.7 cells assessed as inhibition of LPS-induced TNFalpha production after 24 hrs by ELISA; assay type: cell-based
Homo sapiens [13] = organism: Homo sapiens; assay: Displacement of 1,8-ANS from His6-tagged FABP4 (unknown origin) R106A mutant expressed in Escherichia coli BL21(DE3) cells at 25 uM by fluorescence assay relative to control
[14] = molecular target: T5, Fatty acid-binding protein, heart; assay: Displacement of 1,8-ANS from His6-tagged FABP3 (unknown origin) expressed in Escherichia coli BL21(DE3) cells by fluorescence assay; conditions: read-out: Ki(app)
Target sequence in this assay (P05413 whole entry): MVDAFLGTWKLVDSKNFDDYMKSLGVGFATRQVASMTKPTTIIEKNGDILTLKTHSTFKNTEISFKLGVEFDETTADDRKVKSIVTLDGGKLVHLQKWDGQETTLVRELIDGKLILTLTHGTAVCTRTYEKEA

[15] = molecular target: T2, Fatty acid-binding protein, adipocyte; assay: Displacement of 1,8-ANS from His6-tagged FABP4 (unknown origin) expressed in Escherichia coli BL21(DE3) cells at 25 uM by fluorescence assay relative to control
Target sequence in this assay (P15090 2-132 limits assumed): as the sequence (P15090 2-132 limits assumed) above

Homo sapiens [16] = organism: Homo sapiens; assay: Displacement of 1,8-ANS from His6-tagged FABP4 (unknown origin) R126A mutant expressed in Escherichia coli BL21(DE3) cells at 25 uM by fluorescence assay relative to control
[17] = molecular target: Myelin P2 protein (Homo sapiens) (UniProt P02689); assay: Displacement of 1,8-ANS from His6-tagged FABP8 (unknown origin) expressed in Escherichia coli BL21(DE3) cells at 25 uM by fluorescence assay relative to control
Myelin P2 protein (Homo sapiens), sequence (P02689 whole entry, looked up): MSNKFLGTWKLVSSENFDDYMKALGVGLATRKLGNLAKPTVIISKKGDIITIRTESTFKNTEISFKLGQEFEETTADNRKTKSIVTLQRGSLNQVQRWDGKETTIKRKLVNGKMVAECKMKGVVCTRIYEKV

[18] = molecular target: T2, Fatty acid-binding protein, adipocyte; assay: Displacement of 1,8-ANS from His6-tagged FABP4 (unknown origin) expressed in Escherichia coli BL21(DE3) cells by fluorescence assay; conditions: read-out: Ki(app)
Target sequence in this assay (P15090 whole entry): as the sequence (P15090 whole entry) above

inhibition [1]: 95.5% | Kd [2]: 2650 nM | inhibition [3]: 64% | inhibition [4]: Dose-dependent effect | ΔTm [5]: 4 °C | inhibition [6]: 34.1% | inhibition [7]: 77.7% | inhibition [8]: Dose-dependent effect | inhibition [9]: 58.5% | inhibition [10]: 63.1% | ΔTm [11]: 8.5 °C | inhibition [12]: Dose-dependent effect | Ki [14]: 1300 nM | inhibition [15]: 95.1% | inhibition [17]: 68.4% | Ki [18]: 290 nM
SMILES: O=C(O)C1C2CC=CC2c2cc(Br)cc3c2N1CC1CC=CC31 (stereo not drawn)
inhibition (Homo sapiens [13]): 27% | inhibition (Homo sapiens [16]): 54.7%
